The experiment addresses human Factor Xa (Homo sapiens, UniProt P00742). In words: In vitro assay for inhibition of Factor Xa (fluorogenic assay, Rhodamine 110 bis-CBZ-glycylglycyl-L-arginine amide substrate). It counts as biochemical. The settings on record: Ki = IC50/1.6, tiers 'more preferably' and 'most preferably'. The procedure:
In Vitro Assay for Inhibition of Factor Xa
Compounds of the present invention were tested for their Factor Xa inhibitory activity as determined in vitro by their ability to Inhibit human Factor Xa in a fluorogenic assay, using Rhodamine 110, bis-CBZ-glycylglycyl-L-arginine amide as the fluorogenic substrate. Compounds were diluted from a 10 mM stock solution in dimethylsulfoxide at appropriate concentrations. Assay was performed at room temperature using buffer consisting of: 50 mM Tris-HCl, 150 mM NaCl, 5 mM CaCl2, pH 7.4. containing human Factor Xa (final conc. Of 0.0003U.ml-1). Compound and enzyme were preincubated for 15 min prior to addition of the substrate (final conc. of 10 μM). The reaction was stopped after 3 hrs with the addition of H-D-Phe-Pro-Arg-Chloromethylketone. An LJL-Analyst fluorimeter was used to monitor fluorescence with 485 nm excitation/535 nm emission. To obtain IC50 values the data were analysed using ActivityBase® and XLfit®.
Calculation of Ki values: Ki=IC50/(1+[Substrate]/Km)
The Ki value for the above assay can be obtained by dividing the IC50 value by 1.6.

Structures can show the parent of a compound that is named as a salt.

human Factor Xa, sequence (P00742 235-488 limits assumed): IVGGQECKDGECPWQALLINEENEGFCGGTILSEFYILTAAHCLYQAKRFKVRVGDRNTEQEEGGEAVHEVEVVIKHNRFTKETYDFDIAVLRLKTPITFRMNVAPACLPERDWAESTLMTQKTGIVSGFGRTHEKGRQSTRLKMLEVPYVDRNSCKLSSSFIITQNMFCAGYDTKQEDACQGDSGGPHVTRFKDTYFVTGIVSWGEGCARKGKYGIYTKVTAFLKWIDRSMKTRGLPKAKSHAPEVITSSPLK
human Factor Xa, sequence (P00742 41-179 partner limits assumed): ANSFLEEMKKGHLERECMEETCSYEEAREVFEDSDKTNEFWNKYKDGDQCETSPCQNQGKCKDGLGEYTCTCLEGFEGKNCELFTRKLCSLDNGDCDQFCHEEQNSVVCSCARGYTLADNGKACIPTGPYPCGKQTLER

In general, Ki refers to the dissociation constant of the complex between target and ligand, obtained from inhibition or displacement. Low values mean higher affinity, high ones lower affinity. The molecule `C/C(=C\S(=O)(=O)N(CC1CC1)[C@H]1CCN(c2ccc(C(=O)N(C)C)cc2F)C1=O)c1ccc(Cl)s1` [Example 1, 4-{(3S)-3-[{[(1E)-2-(5-Chloro-2-thienyl)-1-propen-1-yl]sulfonyl}(cycloprotylmethyl)amino]-2-oxo-1-pyrrolidinyl}-3-fluoro-N,N-dimethylbenzamide] yielded a Ki below 10 nM.

The molecule `C/C(=C\S(=O)(=O)N(CCCN(C)C)[C@H]1CCN(c2ccc(C(=O)N(C)C)cc2F)C1=O)c1ccc(Cl)s1` [Example 2, 4-((3S)-3-{{[(1E)-2-(5-Chloro-2-thienyl)-1-propen-1-yl]sulfonyl}[3-(dimethylamino)propyl]amino}-2-oxo-1-Pyrrolidinyl)-3-fluoro-N,N-dimethylbenzamide formate] returned a Ki below 10 nM.

For the molecule `C/C(=C\S(=O)(=O)N(CCOCC(N)=O)[C@H]1CCN(c2ccc(C(=O)N(C)C)cc2F)C1=O)c1ccc(Cl)s1` [Example 4, 4-[(3S)-3-({2-[(2-Amino-2-oxoethyl)oxy]ethyl}{[(1E)-2-(5-chloro-2-thienyl)-1-propen-1-yl]sulfonyl}amino)-2-oxo-1-pyrrolidinyl]-3-fluoro-N,N-dimethylbenzamide], the Ki was below 10 nM.

For `C/C(=C\S(=O)(=O)N(C1CCCC1)[C@H]1CCN(c2ccc(C(=O)N(C)C)cc2F)C1=O)c1ccc(Cl)s1` [Example 5, 4-{(3S)-3-[{[(1E)-2-(5-Chloro-2-thienyl)-1-propen-1-yl]sulfonyl}(cyclopentyl)amino]-2-oxo-1-pyrrolidinyl}-3-fluoro-N,N-dimethylbenzamide], the Ki is below 10 nM.

Regarding `C/C(=C\S(=O)(=O)N(Cc1nccn1C)[C@H]1CCN(c2ccc(C(=O)N(C)C)cc2F)C1=O)c1ccc(Cl)s1` [Example 6, 4-((3S)-3{{[(1E)-2-(5-Chloro-2-thienyl)-1-propen-1-yl]sulfonyl}[(1-methyl-1H-imidazol-2-yl)methyl]amino}-2-oxo-1-pyrrolidinyl)-3-fluoro-N,N-dimethylbenzamide], the Ki was below 10 nM.

Molecule `C/C(=C\S(=O)(=O)N(C(C)C)[C@H]1CCN(c2ccc(C(=O)N(C)C)cc2F)C1=O)c1ccc(Cl)s1` [Example 7, 4-{(3S)-3-[{[(1E)-2-(5-Chloro-2-thienyl)-1-propen-1-yl]sulfonyl}(1-methylethyl)amino]-2-oxo-1-pyrrolidinyl}-3-fluoro-N,N-dimethylbenzamide] had a Ki below 10 nM.

`C/C(=C\S(=O)(=O)N(Cc1ccccn1)[C@H]1CCN(c2ccc(C(=O)N(C)C)cc2F)C1=O)c1ccc(Cl)s1` [Example 8, 4-{(3S)-3-[{[(1E)-2-(5-Chloro-2-thienyl)-1-propen-1-yl]sulfonyl}(2-pyridinylmethyl)amino]-2-oxo-1-pyrrolidinyl}-3-fluoro-N,N-dimethylbenzamide] came in with a Ki below 10 nM.

As for `C/C(=C\S(=O)(=O)N(Cc1c(C)noc1C)[C@H]1CCN(c2ccc(C(=O)N(C)C)cc2F)C1=O)c1ccc(Cl)s1` [Example 9, 4-((3S)-3-{{[(1E)-2-(5-Chloro-2-thienyl)-1-propen-1-yl]sulfonyl}[(3,5-dimethyl-4-isoxazolyl)methyl]amino}-2-oxo-1-pyrrolidinyl)-3-fluoro-N,N-dimethylbenzamide], the Ki was below 10 nM.

`COCCN([C@H]1CCN(c2ccc(C(=O)N(C)C)cc2F)C1=O)S(=O)(=O)/C=C(\C)c1ccc(Cl)s1` [Example 10, 4-((3S)-3-{{[(1E)-2-(5-Chloro-2-thienyl)-1-propen-1-yl]sulfonyl}[2-(methyloxy)ethyl]amino}-2-oxo-1-pyrrolidinyl)-3-fluoro-N,N-dimethylbenzamide] displayed a Ki below 10 nM.

Molecule `C/C(=C\S(=O)(=O)N(CCOC(C)(C)C)[C@H]1CCN(c2ccc(C(=O)N(C)C)cc2F)C1=O)c1ccc(Cl)s1` [Example 11, 4-[(3S)-3-({[(1E)-2-(5-Chloro-2-thienyl)-1-propen-1-yl]sulfonyl}{2-[(1,1-dimethylethyl)oxy]ethyl}amino)-2-oxo-1-pyrrolidinyl]-3-fluoro-N,N-dimethylbenzamide] displayed a Ki below 10 nM.

The molecule `C/C(=C\S(=O)(=O)N(Cc1nccnc1N)[C@H]1CCN(c2ccc(C(=O)N(C)C)cc2F)C1=O)c1ccc(Cl)s1` [Example 12, 4-[(3S)-3-([(3-Amino-2-pyrazinyl)methyl]{[(1E)-2-(5-chloro-2-thienyl)-1-propen-1-yl]sulfonyl}amino)-2-oxo-1-pyrrolidinyl]-3-fluoro-N,N-dimethylbenzamide] yielded a Ki below 10 nM.

Turning to `C/C(=C\S(=O)(=O)N(C)[C@H]1CCN(c2ccc(C(=O)N(C)C)cc2F)C1=O)c1ccc(Cl)s1` [Example 13, 4-{(3S)-3-[{[(1E)-2-(5-Chloro-2-thienyl)-1-propen-1-yl]sulfonyl}(methyl)amino]-2-oxo-1-pyrrolidinyl}-3-fluoro-N,N-dimethylbenzamide], the Ki is below 10 nM.

Molecule `CN(C)C(=O)c1ccc(N2CC[C@H](N(C)S(=O)(=O)/C=C/c3ccc(Cl)s3)C2=O)c(F)c1` [Example 14, 4-{(3S)-3-[{[(E)-2-(5-chloro-2-thienyl)ethenyl]sulfonyl}(methyl)amino]-2-oxo-1-pyrrolidinyl}-3-fluoro-N,N-dimethylbenzamide] gave a Ki below 10 nM.

(Values after US7329685B2, “1-Phenyl-2-oxo-3-sulfonylamino-pyrrolidine derivatives and related compounds as factor Xa inhibitors for the treatment of acute vascular diseases” (Glaxo Group Limited, priority 2003, dated 2008).)
